# Measurements reported in patent US4039669A, “Composition for topical application and use thereof” (Sterling Drug Inc., priority 1975, dated 1977).
# What was measured:
# steroid 5α-reductase [1] = conditions: cited from earlier work; for Anti-androgenic activity by inhibitory effects on steroid 5α-reductase activity: laboratory animals
# [2] = in vivo; cited from earlier work
# [3] = test system: testosterone-stimulated flank organs; test: Effect on testosterone-stimulated flank organs in the castrated hamster (topical); format: in vivo; conditions: for Flank Organ Cholest., Mean ± S.E. / Flank Organ Diameter, Mean ± S.E. / Flank Organ Wet Wgt, Mean ± S.E. / Flank Organ Develop. (Med. Score): topical; for Flank Organ Cholest., Mean ± S.E. / Flank Organ Diameter, Mean ± S.E. / Flank Organ Wet Wgt, Mean ± S.E.: 14 times over 2 weeks; for Inhibition of testosterone-stimulated increase in the cholesterol contact of the flank organs (in words) / Reduction of testosterone-stimulated increase in flank organ diameter (in words) / Suppression of flank organ development, degree of pigmentation (in words) / Wet weight of the flank organs (in words): topical with 1 μg TP; for Flank Organ Develop. (Med. Score): degree of pigmentation, score 0 to 4, 2 weeks
# Method: (§1) The effect of 17α-(n-propyl)androst-4-en-17β -ol-3-one and 17α-(n-butyl)androst-4-en-17β -ol-3-one on testosterone-stimulated flank organs and on endocrine organs in the castrated hamster was determined as follows:
# (§2) Castrated hamsters were treated on both flank organs topically with testosterone propionate (TP) equivalent to 1 microgram of testosterone with or without the test agents dissolved in 5 microliters of absolute ethanol 14 times over a 2 weeks period. The hamsters were 4-5 weeks of age (55 to 75 grams body weight) and were caged individually. After the end of the two-weeks period, the development (degree of pigmentation) and diameter of the flank organs were assessed and measured, and the flank organs were punched out with an 8 mm cork borer for determination of wet weight and cholesterol content. Endocrine organ weights (adrenal gland, seminal vesicle and thymus gland) were also determined.
# In the first table TP refers to testosterone propionate, Compd. I refers to 17α-(n-propyl)androst-4-en-17β -ol-3-one, Compd. II refers to 17α-(n-butyl)androst-4-en-17β -ol-3-one, and n refers to the number of animals in each group.
# [4] = test system: endocrine organs (adrenal gland, seminal vesicle and thymus gland); test: Endocrine organ weights in the castrated hamster after topical treatment; format: in vivo; conditions: for Endocr. Organ Wgts, Mean ± S.E.: Adrenal Gland / Endocr. Organ Wgts, Mean ± S.E.: Seminal Vesicle / Endocr. Organ Wgts, Mean ± S.E.: Thymus Gland: topical, 2 weeks; for Weights of the endocrine organs (in words): topical application, castrated hamsters
# Method: as §1, §2
# [5] = Standard test procedures for androgenic, estrogenic or anabolic properties; format: in vivo
# [6] = test system: flank organ sebaceous glands; test: Daily topical application to normal, sexually mature male hamsters; format: in vivo, hamster; conditions: 200 μg daily, 6 weeks
# [7] = Subcutaneous and oral toxicity (LD50) in the mouse; conditions: in vivo
# Source text: (§3) 17α-(n-Propyl)androst-4-en-17β -ol-3-one is conveniently prepared by a three-step synthesis from 3β -acetoxyandrost-5-en-17-one in an over-all yield of 43%. The first step is a Grignard reaction with allylmagnesium bromide to give 17α-allylandrost-5-ene-3β,17β-diol in 81% yield. The second step is a hydrogenation over 10% palladium-on-carbon catalyst to afford 17α-propylandrost-5-ene-3β, 17β-diol in 88% yield. The third step is an Oppenauer oxidation with aluminum isopropoxide to give the desired 17α-(n-propyl)androst-4-en-17β -ol-3-one in 60.5% yields.
# [8] = Progestational activity (Clauberg assay); format: in vivo
# Method: When 17α-(n-propyl)androst-4-en-17β -ol-3-one was administered intramuscularly, its progestational activity was about one-fortieth that of progesterone.
# [9] = Serum testosterone levels after topical application to sexually mature hamsters; format: in vivo, hamster; conditions: 200 μg per flank organ topically, 3 weeks
# Method: When 17α-(n-propyl)androst-4-en-17β -ol-3-one was topically applied to sexually mature hamsters at 200 μg per flank organ for a period of 3 weeks, serum testosterone levels were unchanged compared with untreated controls.
# [10] = Subcutaneous and oral toxicity (LD50) in the rat; conditions: in vivo
# Source text: as §3
# steroid 5α-reductase [11] = test: Inhibition of conversion of testosterone to dihydrotestosterone, minced hamster flank organ, tritiated testosterone; format: biochemical
# Method: The effectiveness of 17α-(n-propyl)androst-4-en-17β -ol-3-one in inhibiting the conversion of testosterone dihydrotestosterone by the enzyme steroid 5α-reductase was measured using minced hamster flank organ as a source of the enzyme and tritiated testosterone as a substrate. At concentrations of one-hundredth molar and one-thousandth molar, 17α-(n-propyl)androst-4-en-17β -ol-3-one was 100% and 53% inhibitory, respectively.
# acne or sebum secretion = conditions: tried topically; cited from earlier work
# [12] = 200 μg topically with 1 μg testosterone propionate, castrated hamsters
# [13] = castrated hamsters, 1 μg TP + 100 μg test compound
# [14] = castrated hamsters, 1 μg TP + 200 μg test compound
# [15] = Group III: 1 μg TP + 100 μg test compound
# [16] = Groups IV, V: 1 μg TP + 200 μg test compound
# [17] = oral, read-out: Oral toxicity (LD50)
# [18] = sc, subcutaneous, read-out: Subcutaneous toxicity (LD50)
# [19] = castrated hamsters, 1 μg TP alone
smiles,measurement,setting,value
C[C@]12CC[C@H]3[C@@H](CCC4=CC(=O)CC[C@@]43C)[C@@H]1CC[C@@H]2C(=O)O [3-oxoandrost-4-ene-17β-carboxylic acid],Block of the action of dihydrotestosterone on flank organ responses,steroid 5α-reductase [1]; castrated hamsters,"did not, however, block"
same,Anti-androgenic activity by inhibitory effects on steroid 5α-reductase activity,steroid 5α-reductase [1],exhibit anti-androgenic activity
CC[C@]1(O)CC[C@H]2[C@@H]3CCC4=CC(=O)CC[C@]4(C)[C@H]3CC[C@@]21C [17α-ethylandrost-4-en-17β-ol-3-one],Systemic androgenic activity,[2],have systemic androgenic activity
CCC[C@]1(OC=O)CC[C@H]2[C@@H]3CCC4=CC(=O)CC[C@]4(C)[C@H]3CC[C@@]21C [17β-Formyloxy-17α-(n-propyl)androst-4-en-3-one],"Activity relative to the parent alcohol, by cholesterol content",[3]; [12],about 40%
same,Flank organ development (in words),[3]; [12],no effect
same,Flank organ size (in words),[3]; [12],slightly reduced flank organ size
same,Reduction of flank organ cholesterol content,[3]; [12],32%
same,Reduction of flank organ wet weight,[3]; [12],about 13%
"CCC[C@]1(O)CC[C@H]2[C@@H]3CCC4=CC(=O)CC[C@]4(C)[C@H]3CC[C@@]21C [Compd. I, 17α-(n-propyl)androst-4-en-17β -ol-3-one]","Flank Organ Cholest., Mean ± S.E.",[3]; [13],162 ± 5.8 µg
same,"Flank Organ Diameter, Mean ± S.E.",[3]; [13],3.71±0.22 mm
same,"Flank Organ Wet Wgt, Mean ± S.E.",[3]; [13],28.5 ± 1.0 mg
same,"Flank Organ Cholest., Mean ± S.E.",[3]; [14],163 ± 9.4 µg
same,"Flank Organ Diameter, Mean ± S.E.",[3]; [14],3.91±0.14 mm
same,"Flank Organ Wet Wgt, Mean ± S.E.",[3]; [14],27.5 ± 1.3 mg
same,Inhibition of testosterone-stimulated increase in the cholesterol contact of the flank organs (in words),[3]; castrated hamsters,effective as inhibitors
same,Reduction of testosterone-stimulated increase in flank organ diameter (in words),[3]; castrated hamsters,effective
same,"Suppression of flank organ development, degree of pigmentation (in words)",[3]; castrated hamsters,effective in suppressing flank organ development
same,Wet weight of the flank organs (in words),[3]; castrated hamsters,reduced the wet weight of the flank organs below that recorded for the vehicle control
same,Flank Organ Develop. (Med. Score),[3]; 1 μg TP + 100 μg test compound,3.5
same,Flank Organ Develop. (Med. Score),[3]; 1 μg TP + 200 μg test compound,3.0
same,Flank Organ Develop. (Med. Score),"[3]; 1 μg TP + 200 μg test compound, listed as Compound I",3
same,"Endocr. Organ Wgts, Mean ± S.E.: Adrenal Gland",[4]; [15],12.1±0.32 Mg
same,"Endocr. Organ Wgts, Mean ± S.E.: Seminal Vesicle",[4]; [15],39.5±2.9 Mg
same,"Endocr. Organ Wgts, Mean ± S.E.: Thymus Gland",[4]; [15],58.3±6.7 Mg
same,"Endocr. Organ Wgts, Mean ± S.E.: Adrenal Gland",[4]; [16],11.6±0.48 Mg
same,"Endocr. Organ Wgts, Mean ± S.E.: Seminal Vesicle",[4]; [16],34.0±2.6 Mg
same,"Endocr. Organ Wgts, Mean ± S.E.: Thymus Gland",[4]; [16],43.5±4.9 Mg
same,Weights of the endocrine organs (in words),[4],not significantly altered
same,"Androgenic, estrogenic or anabolic properties",[5],"devoid of any significant androgenic, estrogenic or anabolic properties"
same,Flank organ development,[6],caused a regression in flank organ development
same,Seminal vesicle weights,[6],not reduced
same,Size and lipid content of the sebaceous glands,[6],significantly reduced
same,LD50,[7]; [17],> 5000 mg/kg
same,LD50,[7]; [18],> 1000 mg/kg
same,"Progestational activity, Clauberg assay",[8]; 32 mg/kg applied topically,minimal progestational activity
same,Progestational activity relative to that of progesterone,[8]; administered intramuscularly,about one-fortieth
same,Serum testosterone levels compared with untreated controls,[9],unchanged
same,LD50,[10]; [17],> 5000 mg/kg
same,LD50,[10]; [18],> 1000 mg/kg
same,Inhibition of conversion of testosterone to dihydrotestosterone by steroid 5α-reductase,steroid 5α-reductase [11]; concentration one-hundredth molar,100%
same,Inhibition of conversion of testosterone to dihydrotestosterone by steroid 5α-reductase,steroid 5α-reductase [11]; concentration one-thousandth molar,53%
"CCCC[C@]1(O)CC[C@H]2[C@@H]3CCC4=CC(=O)CC[C@]4(C)[C@H]3CC[C@@]21C [Compd. II, 17α-(n-butyl)androst-4-en-17β -ol-3-one]","Flank Organ Cholest., Mean ± S.E.",[3]; [14],151 ± 8.9 µg
same,"Flank Organ Diameter, Mean ± S.E.",[3]; [14],3.24±0.13 mm
same,"Flank Organ Wet Wgt, Mean ± S.E.",[3]; [14],21.6 ± 1.2 mg
same,Inhibition of testosterone-stimulated increase in the cholesterol contact of the flank organs (in words),[3]; castrated hamsters,effective as inhibitors
same,Reduction of testosterone-stimulated increase in flank organ diameter (in words),[3]; castrated hamsters,effective
same,"Suppression of flank organ development, degree of pigmentation (in words)",[3]; castrated hamsters,effective in suppressing flank organ development
same,Wet weight of the flank organs (in words),[3]; castrated hamsters,reduced the wet weight of the flank organs below that recorded for the vehicle control
same,Flank Organ Develop. (Med. Score),[3]; 1 μg TP + 200 μg test compound,1.0
same,Flank Organ Develop. (Med. Score),"[3]; 1 μg TP + 200 μg test compound, listed as Compound II",1
same,"Endocr. Organ Wgts, Mean ± S.E.: Adrenal Gland",[4]; [16],12.4±0.53 Mg
same,"Endocr. Organ Wgts, Mean ± S.E.: Seminal Vesicle",[4]; [16],34.0±4.1 Mg
same,"Endocr. Organ Wgts, Mean ± S.E.: Thymus Gland",[4]; [16],60.7±7.6 Mg
same,Weights of the endocrine organs (in words),[4],not significantly altered
C[C@]12CCC(=O)C=C1CC[C@@H]1[C@@H]2CC[C@@]2(C)[C@H]1CC[C@]2(C)O [Methyltestosterone],Systemic androgenic activity,[2],have systemic androgenic activity
"CCC(=O)O[C@H]1CC[C@H]2[C@@H]3CCC4=CC(=O)CC[C@]4(C)[C@H]3CC[C@]12C [TP, testosterone propionate, reference compound]","Flank Organ Cholest., Mean ± S.E.",[3]; [19],238 ± 26 µg
same,"Flank Organ Diameter, Mean ± S.E.",[3]; [19],4.30±0.15 mm
same,"Flank Organ Wet Wgt, Mean ± S.E.",[3]; [19],42.0 ± 1.2 mg
same,Flank Organ Develop. (Med. Score),[3]; 1 μg TP alone,4.0
same,"Endocr. Organ Wgts, Mean ± S.E.: Adrenal Gland",[4]; Group II: 1 μg TP alone,11.8±0.81 Mg
same,"Endocr. Organ Wgts, Mean ± S.E.: Seminal Vesicle",[4]; Group II: 1 μg TP alone,35.0±2.9 Mg
same,"Endocr. Organ Wgts, Mean ± S.E.: Thymus Gland",[4]; Group II: 1 μg TP alone,55.2±6.5 Mg
"CC(=O)O[C@]1(C(C)=O)CC[C@H]2[C@@H]3C=C(Cl)C4=CC(=O)[C@@H]5C[C@@H]5[C@]4(C)[C@H]3CC[C@@]21C [cyproterone acetate, 6-chloro-1α , 2α-methylene-4,6-pregnadien-17α-o1-3,20-dione acetate]",Effectiveness against acne or sebum secretion,acne or sebum secretion,not to be effective
COC(=O)[C@H]1CC[C@H]2[C@@H]3CCC4=CC(=O)CC[C@]4(C)[C@H]3CC[C@]12C [methyl ester thereof],Anti-androgenic activity by inhibitory effects on steroid 5α-reductase activity,steroid 5α-reductase [1],exhibit anti-androgenic activity
"CC(=O)[C@H]1CC[C@H]2[C@@H]3CCC4=CC(=O)CC[C@]4(C)[C@H]3CC[C@]12C [progesterone, reference compound]","Progestational activity, Clauberg assay",[8]; 2 mg/kg applied topically,maximal response
